# Source: US9833497B2, “Human originated EGF domain proteins and use of the same” (CHENGDU SOURCEBIO LIMITED-LIABILITY COMPANY, priority 2013, dated 2017)
# Tests used:
# Type in all cases: cell-based
# E. coli BL21 = assay: MIC against Gram-negative bacteria: E. coli BL21; settings: 5×10^5 CFU/mL
# Summary of the method: (§1)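 Antibacterial activity of purified human EGF domain proteins: two-fold concentration series, triplicate wells, LB broth, 5×10^5 CFU/mL bacteria, 37° C shaking incubation. The lowest concentration without growth defines the MIC.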
# Serratia marcescens = assay: MIC against Gram-negative bacteria: Serratia marcescens; settings: 5×10^5 CFU/mL
# Summary of the method: as §1
# Proteus mirabilis = assay: MIC against Gram-negative bacteria: Proteus mirabilis; settings: 5×10^5 CFU/mL
# Summary of the method: as §1
# Moraxella catarrhalis = assay: MIC against Gram-negative bacteria: Moraxella catarrhalis; settings: 5×10^5 CFU/mL
# Summary of the method: as §1
# Pseudomonas aeruginosa = assay: MIC against Gram-negative bacteria: Pseudomonas aeruginosa; settings: 5×10^5 CFU/mL
# Summary of the method: as §1
# Klebsiella pneumonia = assay: MIC against Gram-negative bacteria: Klebsiella pneumonia; settings: 5×10^5 CFU/mL
# Summary of the method: as §1
# E. coli DH5α = assay: Antibacterial activity: MIC and growth curve against E. coli DH5α in 96-well plate; settings: minimal inhibitory concentration against E. coli DH5α; 96-well plate, 5×10^5 CFU/mL, 37° C., judged after 8 h
# Summary of the method: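 Log-phase DH5α (OD600 about 0.5, 37° C, 185 rpm in LB) was pelleted, resuspended in fresh LB and seeded at 5×10^5 CFU/mL with recombinant protein at 50, 25 and 12.5 μg/mL (two-fold series), in triplicate. Plates were shaken at 175 rpm, 37° C, and OD600 was read every 30 min. MIC was the lowest concentration with no growth.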
# Proteus vulgaris = assay: MIC against Gram-negative bacteria: Proteus vulgaris; settings: 5×10^5 CFU/mL
# Summary of the method: as §1
# Aeromonas hydrophila = assay: MIC against Gram-negative bacteria: Aeromonas hydrophila; settings: 5×10^5 CFU/mL
# Summary of the method: as §1
# Citrobacter diversus = assay: MIC against Gram-negative bacteria: Citrobacter diversus; settings: 5×10^5 CFU/mL
# Summary of the method: as §1
# Enterobacter cloacae = assay: MIC against Gram-negative bacteria: Enterobacter cloacae; settings: 5×10^5 CFU/mL
# Summary of the method: as §1
# [1] = E. coli BL21, 10 h cultivation at 37° C.
# [2] = S. marcescens, 10 h cultivation at 37° C.
# [3] = P. mirabilis, 10 h cultivation at 37° C.
# [4] = M. catarrhalis, 10 h cultivation at 37° C.
# [5] = P. aeruginosa, 10 h cultivation at 37° C.
# [6] = K. pneumonia, 10 h cultivation at 37° C.
# [7] = P. vulgaris, 10 h cultivation at 37° C.
# [8] = A. hydrophila, 10 h cultivation at 37° C.
# [9] = C. diversus, 10 h cultivation at 37° C.
# [10] = E. cloacae, 10 h cultivation at 37° C.
substance,measurement,setting,value
PRT469 (NCSTTCFNGGTCFYPGKCICPPGLEGEQCE; listed as Homo sapiens),MIC against E. coli BL21,"E. coli BL21; 96-well plate, 37° C., 10 h",25 µg/mL
same,MIC against S. marcescens,"Serratia marcescens; 96-well plate, 37° C., 10 h",12.5 µg/mL
same,MIC against P. mirabilis,"Proteus mirabilis; 96-well plate, 37° C., 10 h",12.5 µg/mL
same,MIC against M. catarrhalis,"Moraxella catarrhalis; 96-well plate, 37° C., 10 h",50 µg/mL
same,MIC against P. aeruginosa,"Pseudomonas aeruginosa; 96-well plate, 37° C., 10 h",12.5 µg/mL
same,MIC against K. pneumonia,"Klebsiella pneumonia; 96-well plate, 37° C., 10 h",25 µg/mL
same,MIC,E. coli DH5α,12.5 µg/mL
same,MIC against P. vulgaris,"Proteus vulgaris; 96-well plate, 37° C., 10 h",50 µg/mL
same,MIC against A. hydrophila,"Aeromonas hydrophila; 96-well plate, 37° C., 10 h",25 µg/mL
same,MIC against C. diversus,"Citrobacter diversus; 96-well plate, 37° C., 10 h",12.5 µg/mL
same,MIC against E. cloacae,"Enterobacter cloacae; 96-well plate, 37° C., 10 h",50 µg/mL
PRT137 (NPCQGSATCVNTPGERSFLCKCPPGYSGTICE; listed as Homo sapiens),MIC (μg/mL) E. coli BL21,"E. coli BL21; E. coli BL21, 96-well plate, 37° C., 10 h",12.5 µg/mL
same,MIC (μg/mL) S. marcescens,"Serratia marcescens; Serratia marcescens, 96-well plate, 37° C., 10 h",50 µg/mL
same,MIC (μg/mL) P. mirabilis,"Proteus mirabilis; Proteus mirabilis, 96-well plate, 37° C., 10 h",25 µg/mL
same,MIC (μg/mL) M. catarrhalis,"Moraxella catarrhalis; Moraxella catarrhalis, 96-well plate, 37° C., 10 h",12.5 µg/mL
same,MIC (μg/mL) P. aeruginosa,"Pseudomonas aeruginosa; Pseudomonas aeruginosa, 96-well plate, 37° C., 10 h",25 µg/mL
same,MIC (μg/mL) K. pneumonia,"Klebsiella pneumonia; Klebsiella pneumonia, 96-well plate, 37° C., 10 h",12.5 µg/mL
same,MIC,E. coli DH5α,25 µg/mL
same,MIC (μg/mL) P. vulgaris,"Proteus vulgaris; Proteus vulgaris, 96-well plate, 37° C., 10 h",12.5 µg/mL
same,MIC (μg/mL) A. hydrophila,"Aeromonas hydrophila; Aeromonas hydrophila, 96-well plate, 37° C., 10 h",12.5 µg/mL
same,MIC (μg/mL) C. diversus,"Citrobacter diversus; Citrobacter diversus, 96-well plate, 37° C., 10 h",25 µg/mL
same,MIC (μg/mL) E. cloacae,"Enterobacter cloacae; Enterobacter cloacae, 96-well plate, 37° C., 10 h",25 µg/mL
PRT1479 (AKNECHPERTDGCQHFCLPGQESYTCSCAQGYRLGEDHKQCV; listed as Homo sapiens),MIC against E. coli BL21,E. coli BL21; [1],12.5 µg/mL
same,MIC against S. marcescens,"Serratia marcescens; Serratia marcescens, 10 h cultivation at 37° C.",12.5 µg/mL
same,MIC against P. mirabilis,"Proteus mirabilis; Proteus mirabilis, 10 h cultivation at 37° C.",25 µg/mL
same,MIC against M. catarrhalis,"Moraxella catarrhalis; Moraxella catarrhalis, 10 h cultivation at 37° C.",12.5 µg/mL
same,MIC against P. aeruginosa,"Pseudomonas aeruginosa; Pseudomonas aeruginosa, 10 h cultivation at 37° C.",50 µg/mL
same,MIC against K. pneumonia,"Klebsiella pneumonia; Klebsiella pneumonia, 10 h cultivation at 37° C.",100 µg/mL
same,MIC,E. coli DH5α,50 µg/mL
same,MIC against P. vulgaris,"Proteus vulgaris; Proteus vulgaris, 10 h cultivation at 37° C.",50 µg/mL
same,MIC against A. hydrophila,"Aeromonas hydrophila; Aeromonas hydrophila, 10 h cultivation at 37° C.",12.5 µg/mL
same,MIC against C. diversus,"Citrobacter diversus; Citrobacter diversus, 10 h cultivation at 37° C.",50 µg/mL
same,MIC against E. cloacae,"Enterobacter cloacae; Enterobacter cloacae, 10 h cultivation at 37° C.",50 µg/mL
PRT775 (SSLKCPDACNAQHKQCLIKKSGGAPECACVPGYQEDANGNCQ; listed as Homo sapiens),MIC (μg/mL) E. coli BL21,E. coli BL21; [1],25 µg/mL
same,MIC (μg/mL) S. marcescens,Serratia marcescens; [2],50 µg/mL
same,MIC (μg/mL) P. mirabilis,Proteus mirabilis; [3],50 µg/mL
same,MIC (μg/mL) M. catarrhalis,Moraxella catarrhalis; [4],12.5 µg/mL
same,MIC (μg/mL) P. aeruginosa,Pseudomonas aeruginosa; [5],50 µg/mL
same,MIC (μg/mL) K. pneumonia,Klebsiella pneumonia; [6],12.5 µg/mL
same,MIC,E. coli DH5α,12.5 µg/mL
same,MIC (μg/mL) P. vulgaris,Proteus vulgaris; [7],12.5 µg/mL
same,MIC (μg/mL) A. hydrophila,Aeromonas hydrophila; [8],12.5 µg/mL
same,MIC (μg/mL) C. diversus,Citrobacter diversus; [9],50 µg/mL
same,MIC (μg/mL) E. cloacae,Enterobacter cloacae; [10],50 µg/mL
PRT265 (CQDGHGGCSEHANCSQVGTMVTCTCLPDYEGDGWSC; listed as Homo sapiens),MIC (μg/mL) E. coli BL21,E. coli BL21; [1],12.5 µg/mL
same,MIC (μg/mL) S. marcescens,Serratia marcescens; [2],25 µg/mL
same,MIC (μg/mL) P. mirabilis,Proteus mirabilis; [3],25 µg/mL
same,MIC (μg/mL) M. catarrhalis,Moraxella catarrhalis; [4],25 µg/mL
same,MIC (μg/mL) P. aeruginosa,Pseudomonas aeruginosa; [5],25 µg/mL
same,MIC (μg/mL) K. pneumonia,Klebsiella pneumonia; [6],12.5 µg/mL
same,MIC,E. coli DH5α,25 µg/mL
same,MIC (μg/mL) P. vulgaris,Proteus vulgaris; [7],50 µg/mL
same,MIC (μg/mL) A. hydrophila,Aeromonas hydrophila; [8],12.5 µg/mL
same,MIC (μg/mL) C. diversus,Citrobacter diversus; [9],25 µg/mL
same,MIC (μg/mL) E. cloacae,Enterobacter cloacae; [10],25 µg/mL
PRT621 (CQCNNNVDPSASGNCDRLTGRCLKCIHNTAGIYCDQCKAGYFGDPLAPNPADKCRA; listed as Homo sapiens),MIC E. coli BL21,"E. coli BL21; 96-well plate, 37° C., 10 h",25 µg/mL
same,MIC S. marcescens,"Serratia marcescens; 96-well plate, 37° C., 10 h",50 µg/mL
same,MIC P. mirabilis,"Proteus mirabilis; 96-well plate, 37° C., 10 h",50 µg/mL
same,MIC M. catarrhalis,"Moraxella catarrhalis; 96-well plate, 37° C., 10 h",25 µg/mL
same,MIC P. aeruginosa,"Pseudomonas aeruginosa; 96-well plate, 37° C., 10 h",50 µg/mL
same,MIC K. pneumonia,"Klebsiella pneumonia; 96-well plate, 37° C., 10 h",25 µg/mL
same,MIC,E. coli DH5α,50 µg/mL
same,MIC P. vulgaris,"Proteus vulgaris; 96-well plate, 37° C., 10 h",25 µg/mL
same,MIC A. hydrophila,"Aeromonas hydrophila; 96-well plate, 37° C., 10 h",25 µg/mL
same,MIC C. diversus,"Citrobacter diversus; 96-well plate, 37° C., 10 h",50 µg/mL
same,MIC E. cloacae,"Enterobacter cloacae; 96-well plate, 37° C., 10 h",50 µg/mL
